Data published in US20230149355A1, “COMPOSITIONS AND METHODS FOR MODULATING TRP CHANNEL ACTIVITY” (priority 2020, published 2023).

Key:
[1] = tested on: AhR signaling; settings: 0.05 μM; cited from earlier work
[2] = tested on: intestinal motility; assay: Zebrafish intestinal motility (PIV-Lab velocity analysis); type: in vivo; settings: AhR inhibitor 10 μM or folic acid 10 μM for 2 hours
Procedure: For EEC Trpa1 activation using the Optovin platform, zebrafish larvae were treated with 10 μM Optovin overnight. Following Optovin treatment, unanesthetized zebrafish were mounted in 1% LMA and imaged under a 780 upright Zeiss confocal microscope using 20× water objective lenses. For all the experiments, the mid-intestine region was imaged (FIG. 10D). The intestinal epithelium was selected as the region of interest (ROI) (FIG. 10A). Serial images were obtained at 1 s/frame. A 405 nm pulse of light was applied to the ROI at 1 pulse/10 s. For some experiments (FIG. 7D-F, FIG. 10B-G), the images were obtained at 10 s/frame.
The zebrafish intestinal motility is quantified through recorded image series of zebrafish intestine using the method similar as previously described (Ganz et al., 2018). Intestinal p velocity and v velocity were used to estimate intestinal motility in zebrafish as previously described using the PIV-Lab MATLAB app (Ganz et al., 2018). A positive value of the μ velocity indicates an anterograde intestinal movement and a negative value of the μ velocity indicates a retrograde intestinal movement. The time-course p velocity number is plotted as heatmaps. When calculating the mean velocity, only the mean velocity magnitude was calculated, which therefore doesn't account for the movement direction. The MTrackJ FIJI plugin was used to quantify the mean velocity magnitude (Meijering et al., 2012).

[3] = tested on: E. tarda; assay: Intestinal E. tarda mCherry accumulation in zebrafish treated with AhR inhibitors; type: in vivo; settings: AhR inhibitor 1 μM or folic acid 10 μM, 3 dpf to 6 dpf
Procedure: For E. tarda colonization experiments, fertilized zebrafish eggs were collected, sorted and transferred into a cell culture flask containing 80 mL GZM at 0 dpf. At 3 dpf, dead embryos and 60 mL GZM were removed and replaced with 50 mL fresh GZM in each flask. To facilitate consistent commensal gut bacterial colonization, an additional 10 mL of filtered system water (5 μm filter, SLSV025LS, Millipore) were added to each flask. Overnight E. tarda mCherry culture was harvested, washed three times with GZM. 150 μL of GZM-washed E. tarda mCherry culture were inoculated into each flask. The E. tarda concentration is ˜10^6 CFU/ml. […] At 6 dpf, zebrafish larvae were subjected to fluorescence imaging analysis or CFU quantification. For fluorescence imaging analysis, zebrafish larvae were anesthetized with Tricaine ([…]), mounted in 3% methylcellulose and imaged with a Leica M205 FA upright fluorescence stereomicroscope equipped with a Leica DFC 365FX camera. For CFU quantification, digestive tracts were dissected and transferred into 1 mL sterile PBS which was then mechanically disassociated using a Tissue-Tearor (BioSpec Products, 985370). […] The mCherry+ colonies were quantified from each plate and E. tarda colony forming units (CFUs) per fish were calculated. […]

[4] = target: T1, AhR (Homo sapiens, UniProt P35869); settings: Kim et al., 2020; cited from earlier work
T1 sequence (P35869 11-848): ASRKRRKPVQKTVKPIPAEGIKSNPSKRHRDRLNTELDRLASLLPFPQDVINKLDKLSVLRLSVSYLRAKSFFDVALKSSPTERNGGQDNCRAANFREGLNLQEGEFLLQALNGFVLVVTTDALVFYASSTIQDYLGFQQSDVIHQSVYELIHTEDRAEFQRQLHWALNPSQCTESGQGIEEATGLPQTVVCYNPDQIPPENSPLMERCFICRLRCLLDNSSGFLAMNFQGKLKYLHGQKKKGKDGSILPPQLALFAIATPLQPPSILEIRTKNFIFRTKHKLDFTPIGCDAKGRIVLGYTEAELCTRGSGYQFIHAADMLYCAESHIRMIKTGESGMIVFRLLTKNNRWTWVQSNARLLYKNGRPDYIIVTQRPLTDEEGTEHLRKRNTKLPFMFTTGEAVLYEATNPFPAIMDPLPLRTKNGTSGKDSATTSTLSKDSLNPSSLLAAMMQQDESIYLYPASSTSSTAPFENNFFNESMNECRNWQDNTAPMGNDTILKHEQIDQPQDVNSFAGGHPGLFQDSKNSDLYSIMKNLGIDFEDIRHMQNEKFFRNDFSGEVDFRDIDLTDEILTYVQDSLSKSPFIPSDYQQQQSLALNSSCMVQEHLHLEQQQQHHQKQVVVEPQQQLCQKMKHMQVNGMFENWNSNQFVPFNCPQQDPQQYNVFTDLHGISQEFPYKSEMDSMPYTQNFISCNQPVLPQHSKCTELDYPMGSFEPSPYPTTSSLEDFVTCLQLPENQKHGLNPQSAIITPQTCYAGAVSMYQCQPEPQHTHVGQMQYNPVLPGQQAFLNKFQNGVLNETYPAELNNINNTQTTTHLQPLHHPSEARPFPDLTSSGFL

Nc1nc2ncc(CNc3ccc(C(=O)N[C@@H](CCC(=O)O)C(=O)O)cc3)nc2c(=O)[nH]1 [Folic acid]
Inhibition of AhR signaling in early zebrafish embryos [1]: inhibits
Effect on Optovin-UV induced intestinal motility change [2]: insufficient to block
Effect on E. tarda intestinal accumulation [3]: insufficient to block
Concentration at which it acts as a competitive AhR antagonist (as low as) [4]: 10 ng/mL
